# From US20190160156A1, “Use of Acid Stable Proteases in Animal Feed, Preferably to Increase Performance of Cocc-Vaccinated Broiler Chickens” (Novozymes A/S, priority 2011, published 2019)
# Tested on: male birds Cobb X Cobb chicks
# Assay: Floor pen feeding trial of cocci-vaccinated birds with ProAct and enzyme combinations (Example 3)
# Assay type: in vivo, male broiler chickens (Cobb X Cobb)
# Details: Day 42, male Cobb X Cobb broilers
# Method: A floor pen trial was conducted using day old male birds Cobb X Cobb chicks. A total of 2,160 were allocated to the study. The experiment consisted of 48 pens of 45 male broiler chickens. Treatments were replicated in eight (8) blocks with six (6) treatments randomized in each. The birds were fed nutritionally-adequate basal diets based on corn/soybean meal and adjusted to the bird age by feeding a starter diet from day 1 to 16 and a grower diet from day 17 to 32 and a finisher diet from day 33 to 42. The 6 treatments were as follows:
# As treatment RONOZYME® enzyme products, supplied by DSM Nutritional Products, Kaiseraugst, Switzerland have been used.
# Ronozyme®AX=80% Ronozyme®WX+20% Ronozyme®A
# Ronozyme® ProAct=pure protease product.
# All birds received Cocci Vac® B on day 1 of age administered nasally in the hatchery except the positive control birds that were given a standard dose of the coccidiostat Salinomcyin of 60 g/ton of feed throughout the study
# At the end of the trial at day 42 the average bird weight (Avg. Wt. Gain) and the average feed consumption (Feed Consump.) were determined and the Feed Conversion Ratio (FRC) was calculated by dividing the feed intake by the weight gain for each treatment
smiles,measurement,setting,value
"CC[C@@H](C(=O)[C@@H](C)[C@@H](O)[C@H](C)[C@@H]1O[C@@H]([C@@H](CC)C(=O)O)CC[C@@H]1C)[C@H]1O[C@]2(C=C[C@@H](O)[C@]3(CC[C@@](C)([C@H]4CC[C@](O)(CC)[C@H](C)O4)O3)O2)[C@H](C)C[C@@H]1C [Salinomcyin 60 g/t, Salinomycin]",Avg. Wt. Gain,average bird weight,2.490 a
same,Feed Consump.,average feed consumption,191.58 a
same,FCR,feed intake divided by weight gain,1.719 days
